From BindingDB's records for doi:10.1021/acs.jmedchem.7b01231 (Dongguk University, 2017)

molecular target: Hypoxia-inducible factor 1-alpha (Homo sapiens, UniProt Q16665); test: ChEBML_1681384
Protocol: Inhibition of HIF-1alpha in human HCT116 cells incubated for 12 hrs under hypoxic conditions by HRE dual-luciferase reporter gene assay

Chain of Hypoxia-inducible factor 1-alpha (Q16665 whole entry): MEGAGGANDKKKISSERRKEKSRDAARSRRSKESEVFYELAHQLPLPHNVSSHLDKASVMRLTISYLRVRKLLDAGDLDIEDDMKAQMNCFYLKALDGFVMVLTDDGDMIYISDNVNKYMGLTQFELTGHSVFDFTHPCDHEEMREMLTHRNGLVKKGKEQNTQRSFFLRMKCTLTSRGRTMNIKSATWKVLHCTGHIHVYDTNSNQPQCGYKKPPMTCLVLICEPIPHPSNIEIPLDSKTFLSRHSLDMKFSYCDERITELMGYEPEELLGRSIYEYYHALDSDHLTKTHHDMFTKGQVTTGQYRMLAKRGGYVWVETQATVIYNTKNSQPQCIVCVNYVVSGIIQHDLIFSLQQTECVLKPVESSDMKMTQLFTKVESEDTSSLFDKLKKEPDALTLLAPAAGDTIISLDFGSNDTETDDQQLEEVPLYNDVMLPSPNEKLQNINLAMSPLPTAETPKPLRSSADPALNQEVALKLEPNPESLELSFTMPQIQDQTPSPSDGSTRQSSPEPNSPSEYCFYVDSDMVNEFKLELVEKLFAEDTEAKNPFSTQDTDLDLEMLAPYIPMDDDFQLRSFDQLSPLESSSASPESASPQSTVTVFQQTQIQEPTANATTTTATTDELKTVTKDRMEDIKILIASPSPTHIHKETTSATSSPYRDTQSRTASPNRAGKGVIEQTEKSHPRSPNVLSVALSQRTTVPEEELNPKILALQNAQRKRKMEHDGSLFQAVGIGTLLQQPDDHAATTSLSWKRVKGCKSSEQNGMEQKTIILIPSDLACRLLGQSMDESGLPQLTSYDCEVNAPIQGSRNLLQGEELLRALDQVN

| Compound | IC50 |
| --- | --- |
| COC(=O)c1ccc(OC)c(NC(=O)COc2ccc(C(C)(C)CC(C)(C)C)cc2)c1 | > 40 µM |
| COC(=O)c1cccc(NC(=O)CCCOc2ccc(C(C)(C)CC(C)(C)C)cc2)c1 | 1.4 µM |
| CCCCCc1ccc(OCC(=O)Nc2cccc(C(=O)OC)c2)cc1 | > 40 µM |
